Consider 30 compounds from US11261201B2 (priority 2018, dated 2022).

The structures appear in SMILES notation. Values after ≈ are worked out from the molar mass of the structure shown. Structures can show the parent of a compound that is named as a salt. Where two headings read alike, the source gives them in different places.

In test [1] the test system is H37RvMA. Nature of the test: Tuberculosis Alamar Blue/Resazurin assay (MIC). It is filed as cell-based. The note with it: read-out: WT H37Rv MTB Activity. On the technique in general: The colour change of resazurin is a common sign of viable cells or microbes.
Test [2] relates to A. baumannii. Description: Gram negative MIC protocol (OD600, LB, 24 h). The note with it: for MIC: Acinetobacter baumannii.
Experimental: (§1) Overnight bacterial cultures were grown in LB with no added antibiotics at 37° C. with shaking. A 1:1000 dilution of these cultures into LB was exposed to concentration gradients of compounds in 96-well plates (100 μL per well assay volume). Resulting plates were incubated at 37° C. for 24 h without shaking, and OD600 was measured at the end of the incubation. MICs were determined as the lowest concentrations at which OD600 remained at baseline.
The test system of test [3] is E. coli. Description: Gram negative MIC protocol (OD600, LB, 24 h). Particulars: for MIC: Escherichia coli.
Experimental: as §1
The mark [4] stands for this setting: Mycobacterium tuberculosis, H37RV, WT H37Rv MTB.
Setting [5] is: read-out: MIC A. baumannii LB Media, A. baumannii, LB media, 24 h, OD600.
[6] abbreviates: read-out: MIC E. coli delta-TolC LB Media, E. coli delta-TolC strain, LB media, 24 h, OD600.
Where [7] appears, read: read-out: MIC WT E. coli LB Media, wild-type E. coli, LB media, 24 h, OD600.
Setting [8] is: read-out: MIC E. coli delta-TolC LB Media, E. coli delta-TolC, LB media, OD600.
Where [9] appears, read: read-out: MIC WT E. coli LB Media, WT E. coli, LB media, OD600.
[10] abbreviates: Mycobacterium tuberculosis, H37RV.
Where [11] appears, read: read-out: MIC A. baumannii LB Media.

For the compound `CC(CC1CCCCC1)NCc1ccccc1OCCOC(C)(C)C` (stereo not drawn) [B307], the MIC in test [1] (setting [4]) is 150 µM (≈ 52.1 µg/mL); in test [2] (setting [5]), more than 150 µM; in test [3] (setting [6]), 20 µM (≈ 6.95 µg/mL); in test [3] (setting [7]) it was more than 150 µM.

Take `c1ccc(CNCCN2CCCc3ccccc32)cc1` [B148]: the MIC in test [1] (setting [4]) was 150 µM (≈ 40 µg/mL); in test [2] (setting [5]), more than 150 µM; in test [3] (setting [8]) it was more than 150 µM; in test [3] (setting [9]), more than 150 µM.

Take `Cl.c1ccc(CNCC2CCCc3ccccc32)cc1` (stereo not drawn) [B214, N-benzyl-1-(1,2,3,4-tetrahydronaphthalen-1-yl)methanamine hydrochloride]: the MIC in test [1] (WT H37Rv MTB) is more than 150 µM; in test [2] (setting [5]), more than 300 µM; in test [3] (setting [6]), more than 300 µM; in test [3] (setting [7]) it was more than 300 µM.

Take `CC(CC1CCCCC1)NCc1cccc2ccn(C)c12` (stereo not drawn) [B441, 1-cyclohexyl-N-((1-methyl-1H-indol-7-yl)methyl)propan-2-amine hydrochloride]: the MIC was 33.4 µM in test [1] (setting [4]), more than 150 µM in test [2] (setting [5]), 91 µM in test [3] (setting [8]) and more than 150 µM in test [3] (setting [9]).

In the case of `CC(C)CCNCc1ccccc1` [B2], the MIC in test [1] (setting [4]), in test [2] (setting [5]), in test [3] (setting [8]) and in test [3] (setting [9]) was more than 150 µM each time.

Take `CC(CC1CCCCC1)NCc1ccccc1OCC(=O)NC(N)=O` (stereo not drawn) [B335]: the MIC in test [1] (setting [4]) was more than 150 µM; in test [2] (setting [5]), 150 µM (≈ 52.1 µg/mL); in test [3] (setting [6]), 4 µM (≈ 1.39 µg/mL); in test [3] (setting [7]) it was 55 µM (≈ 19.1 µg/mL).

For `O=C(O)C(CC1CCCCC1)NCc1ccccc1` (stereo not drawn) [B180], the MIC in test [1] (setting [4]) was more than 150 µM; in test [2] (setting [5]), more than 300 µM; in test [3] (setting [8]), more than 300 µM; in test [3] (setting [9]), more than 300 µM.

In the case of `CC(=O)Oc1ccccc1CNCCC1CCCCC1` [B256, 2-((2-cyclohexylethylamino)methyl)phenyl acetate], the MIC in test [1] (setting [4]) is more than 150 µM; in test [2] (setting [5]), more than 150 µM; in test [3] (setting [6]) it was 150 µM; in test [3] (setting [7]), more than 150 µM.

On to `CC(CC1CCCCC1)NCc1ccccc1OCc1cccc(F)c1` (stereo not drawn) [B383], for which the MIC in test [1] (setting [4]) is 12.2 µM (≈ 4.34 µg/mL); in test [2] (setting [5]), 91 µM (≈ 32.4 µg/mL); in test [3] (setting [6]) it was 2 µM (≈ 0.711 µg/mL); in test [3] (setting [7]) it was 55 µM (≈ 19.6 µg/mL).

Turning to `c1ccc(CNCCN2CC3CCC(C2)O3)cc1` [B64], the MIC in test [1] (setting [10]), in test [2] (setting [5]), in test [3] (setting [8]) and in test [3] (setting [9]) was more than 150 µM each time.

On to `CN1CCC(CNCc2ccccc2)c2ccccc21` (stereo not drawn) [B139], for which the MIC in test [1] (setting [4]), in test [2] (setting [5]), in test [3] (setting [8]) and in test [3] (setting [9]) was more than 150 µM in each case.

With `CC(CC1CCCCC1)NCc1ccccc1NCc1ccccc1F` (stereo not drawn) [B397, 2-(((1-cyclohexylpropan-2-yl)amino)methyl)-N-(2-fluorobenzyl)aniline dihydrochloride], the MIC is 12.2 µM in test [1] (setting [4]), more than 150 µM in test [2] (setting [5]), 5 µM in test [3] (setting [6]) and more than 150 µM in test [3] (setting [7]).

For the compound `COc1cccc(COc2ccccc2CNC(C)CC2CCCCC2)c1` (stereo not drawn) [B459, 1-cyclohexyl-N-(2-((3-methoxybenzyl)oxy)benzyl)propan-2-amine], the MIC in test [1] (setting [4]) was found to be 17 µM (≈ 6.25 µg/mL); in test [2] (setting [5]), 91 µM (≈ 33.4 µg/mL); in test [3] (setting [8]), 2 µM (≈ 0.735 µg/mL); in test [3] (setting [9]) it was 55 µM (≈ 20.2 µg/mL).

Take `NC(=O)c1ccccc1CNCCC1CCCCC1` [B259, 2-((2-cyclohexylethylamino)methyl)benzamide trifluoroacetate]: the MIC in test [1] (setting [10]) was more than 150 µM; in test [2] (setting [11]), more than 150 µM; in test [3] (setting [6]), 125 µM; in test [3] (setting [7]), more than 150 µM.

As for `CC(Cc1ccn(C(C)C)n1)NCc1ccccc1` (stereo not drawn) [B47], the MIC in test [1] (setting [10]), in test [2] (setting [5]), in test [3] (setting [8]) and in test [3] (setting [9]) was more than 150 µM throughout.

Take `CC(CC1CCCCC1)NCc1ccccc1OCc1ccccc1F` (stereo not drawn) [B286]: the MIC came out at 33 µM (≈ 11.7 µg/mL) in test [1] (setting [4]), 91 µM (≈ 32.4 µg/mL) in test [2] (setting [5]), 3 µM (≈ 1.07 µg/mL) in test [3] (setting [6]) and 91 µM (≈ 32.4 µg/mL) in test [3] (setting [7]).

In the case of `CC(CC1CCCCC1)NCc1ccccc1OCC(=O)NC(=O)NC(C)(C)C` (stereo not drawn) [B325], the MIC in test [1] (setting [4]) was 91 µM (≈ 36.7 µg/mL); in test [2] (setting [5]) it was 150 µM (≈ 60.5 µg/mL); in test [3] (setting [6]), 4 µM (≈ 1.61 µg/mL); in test [3] (setting [7]), more than 150 µM.

Regarding `CC(CC1CCCCC1)NCc1ccccc1OCC1CNC(=O)O1` (stereo not drawn) [B377], the MIC in test [1] (setting [4]) is more than 150 µM; in test [2] (setting [5]) it was 150 µM (≈ 52 µg/mL); in test [3] (setting [6]), 2.3 µM (≈ 0.797 µg/mL); in test [3] (setting [7]), 75 µM (≈ 26 µg/mL).

As for `OC1(CCNCc2ccccc2)CC2CCC1C2` (stereo not drawn) [B60], the MIC in test [1] (setting [4]), in test [2] (setting [5]), in test [3] (setting [8]) and in test [3] (setting [9]) was more than 150 µM each time.

For `OC(CNCc1ccccc1)c1cccc2ccccc12` (stereo not drawn) [B19], in test [1] (WT H37Rv MTB), the MIC is 150 µM (≈ 41.6 µg/mL). Also, in test [2] (A. baumannii, LB media, OD600), the “MIC A. baumannii LB Media” value was more than 150 µM. In test [3] (E. coli delta-TolC, LB media, OD600), the “MIC E. coli delta-TolC LB Media” value is more than 150 µM. For the same compound, the “MIC WT E. coli LB Media” value in test [3] (WT E. coli, LB media, OD600) is more than 150 µM.

For the compound `COC(=O)c1cccc(CNCCC2CCCCC2)c1` [B349], the MIC in test [1] (setting [4]), in test [2] (setting [5]), in test [3] (setting [6]) and in test [3] (setting [7]) was more than 150 µM in each case.

For `NC(=O)C(CC1CCCCC1)NCc1ccccc1` (stereo not drawn) [B205, 2-(benzylamino)-3-cyclohexylpropanamide hydrochloride], the MIC in test [1] (setting [4]) was more than 150 µM; in test [2] (setting [5]), more than 300 µM; in test [3] (setting [6]) it was more than 300 µM; in test [3] (setting [7]), more than 300 µM.

For the compound `c1ccc(CNC2CC23CCCCC3)cc1` (stereo not drawn) [B125], the MIC in test [1] (setting [4]), in test [2] (setting [5]), in test [3] (setting [8]) and in test [3] (setting [9]) was more than 150 µM in each case.

For the compound `Cc1ccc(CNC2CCCCC2)cc1` [B137], the MIC in test [1] (setting [4]), in test [2] (setting [5]), in test [3] (setting [8]) and in test [3] (setting [9]) was more than 150 µM each time.

`CC(CC1CCCCC1)NCc1ccccc1CS(=O)(=O)NCC(O)CO` (stereo not drawn) [B431, 1-(2-(((1-cyclohexylpropan-2-yl)amino)methyl)phenyl)-N-(2,3-dihydroxypropyl) methanesulfonamide]: the MIC in test [1] (setting [4]) is more than 150 µM; in test [2] (setting [5]), more than 150 µM; in test [3] (setting [8]), 4 µM (≈ 1.59 µg/mL); in test [3] (setting [9]), 150 µM (≈ 59.8 µg/mL).

In the case of `FC1(F)Oc2ccc(CCNCc3ccccc3)cc2O1` [B120], the MIC in test [1] (setting [10]), in test [2] (setting [11]), in test [3] (setting [8]) and in test [3] (setting [9]) was more than 150 µM in each case.

`CC(CC1CCCCC1)NCc1ccccc1OCC1CNC(=O)C1` (stereo not drawn) [B403]: the MIC in test [1] (setting [4]) was more than 150 µM; in test [2] (setting [5]), more than 150 µM; in test [3] (setting [8]), 7 µM (≈ 2.41 µg/mL); in test [3] (setting [9]), more than 150 µM.

For `CC1CCCCC1CCN1Cc2ccccc2CC1=O` (stereo not drawn) [B415, 2-(2-(2-methylcyclohexyl)ethyl)-1,4-dihydroisoquinolin-3(2H)-one], the MIC in test [1] (setting [4]) is 1.26 µM (≈ 0.341 µg/mL); in test [2] (setting [5]), more than 150 µM; in test [3] (setting [8]), 55 µM (≈ 14.9 µg/mL); in test [3] (setting [9]) it was more than 150 µM.

For the compound `C[Si](C)(C)c1ccccc1CNCCC1CCCCC1` [B341, 2-cyclohexyl-N-(2-(trimethylsilyl)-benzyl)ethanamine hydrochloride], the MIC is 150 µM in test [1] (setting [10]), more than 150 µM in test [2] (setting [11]), 7 µM in test [3] (setting [6]) and more than 150 µM in test [3] (setting [7]).

Regarding `CC(CC1CCCCC1)NCc1ccccc1OCc1cn2ccccc2n1` (stereo not drawn) [B244], the MIC in test [1] (setting [4]) turned out to be 150 µM (≈ 56.6 µg/mL); in test [2] (setting [5]) it was 150 µM (≈ 56.6 µg/mL); in test [3] (setting [6]), 3 µM (≈ 1.13 µg/mL); in test [3] (setting [7]), 91 µM (≈ 34.4 µg/mL).
